# Values of other authors, collected in US20030054020A1, “Method and composition for reducing sebum secretion in mammals” (priority 2001, published 2003).
# Test system: human sebaceous glands
smiles,measurement,value
CC1=C(/C=C/C(C)=C/C=C/C(C)=C\C(=O)O)C(C)(C)CCC1 [13-cis-retinoic acid],Reduction of the size of human sebaceous glands,up to 90%
